Assay results taken from patent US11000033B2, “Ketone or oxime compound, and herbicide” (NISSAN CHEMICAL CORPORATION, priority 2014, dated 2021).

What was measured:
Format in all cases: in vivo
[1] = test system: Echinochloa oryzacola Vasing.; assay: Test Example 1: herbicidal activity, application before weed generation in submerged conditions (symbol A); details: application herbicide amount 320 g/ha
Method in brief: (§1)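 Mixed weed seeds sown in alluvial soil under 4 cm of water, with rice seedlings at the 2.5-leaf stage added. Same-day treatment: emulsion diluted to a set herbicide amount onto the water. Three weeks at 25–30 °C, then graded on a six-step scale.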

Monochoria vaginalis [2] = assay: Test Example 1: herbicidal activity, application before weed generation in submerged conditions (symbol C); details: application herbicide amount 320 g/ha
Method in brief: as §1

[3] = test system: Echinochloa oryzacola Vasing.; assay: Test Example 2: herbicidal activity, application during weed generation in submerged conditions (symbol A); details: Table 23; application herbicide amount 320 g/ha; grade 0-5 by criteria of Test Example 1
Method in brief: (§2)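 Visual herbicidal ratings, taken three weeks after dosing, reflect post-emergence water-surface application to seedlings at one to two leaves. Conditions: co-sown weeds in alluvial soil flooded to 4 cm, greenhouse held at 25° C. to 30° C.; compound given as water-diluted emulsion at a fixed herbicide amount.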

Scirpus juncoides = assay: Test Example 2: herbicidal activity, application during weed generation in submerged conditions (symbol B); details: Table 23; application herbicide amount 320 g/ha; grade 0-5 by criteria of Test Example 1
Method in brief: as §2

Monochoria vaginalis [4] = assay: Test Example 2: herbicidal activity, application during weed generation in submerged conditions (symbol C); details: Table 23; application herbicide amount 320 g/ha; grade 0-5 by criteria of Test Example 1
Method in brief: as §2

Setaria viridis = assay: Test Example 4: herbicidal effect by soil treatment (symbol G); details: for G: Setaria viridis, herbicidal effect grade: 320 g/ha
Method in brief: (§3)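 Seeds were sown in sterilized diluvial soil, covered with about 1.5 cm of soil, and the soil surface was sprayed with a water-diluted emulsion of the compound at a predetermined rate. Plants grew in a greenhouse at 25° C. to 30° C.; effects were scored visually 3 weeks after application.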

Abutilon theophrasti = assay: Test Example 4: herbicidal effect by soil treatment (symbol M); details: for M: Abutilon theophrasti, herbicidal effect grade: 320 g/ha
Method in brief: as §3

Galium spurium [5] = assay: Test Example 4: herbicidal effect by soil treatment (symbol Q); details: for Q: Galium spurium, herbicidal effect grade: 320 g/ha
Method in brief: as §3

corn = assay: Test Example 4: effect on crop by soil treatment (symbol c); details: for c: corn, effect grade on crop: 320 g/ha
Method in brief: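 Soil-treatment setup: crop and weed seeds were spot-sown into sterilized diluvial soil, then buried beneath approximately 1.5 cm of it, and the boxes were housed in a 25–30° C. greenhouse.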

wheat = assay: Test Example 4: effect on crop by soil treatment (symbol e); details: for e: wheat, effect grade on crop: 320 g/ha
Method in brief: (§4)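 Crop seed is sown in spots together with several weed species in a box of sterilized diluvial soil. It is covered by about 1.5 cm of soil and kept in a greenhouse held between 25° C. and 30° C.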

beet [6] = assay: Test Example 4: effect on crop by soil treatment (symbol f); details: for f: beet, effect grade on crop: 320 g/ha
Method in brief: as §4

Alopecurus myosuroides = assay: Test Example 5: herbicidal effect by foliage application, plastic box (symbol J); details: 320 g/ha, 3 weeks after application
Method in brief: (§5)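 Greenhouse foliar test: seedlings at 14 days, grown 25° C. to 30° C. in sterilized diluvial soil; compound applied as an aqueous dilution of an emulsion; response read 3 weeks after spraying.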

Lolium multiflorum Lam. = assay: Test Example 5: herbicidal effect by foliage application, plastic box (symbol K); details: 320 g/ha, 3 weeks after application
Method in brief: as §5

Amaranthus retroflexus = assay: Test Example 5: herbicidal effect by foliage application, plastic box (symbol N); details: 320 g/ha, 3 weeks after application
Method in brief: as §5

Galium spurium [7] = assay: Test Example 5: herbicidal effect by foliage application, plastic box (symbol Q); details: 320 g/ha, 3 weeks after application
Method in brief: as §5

rice plant = assay: Test Example 5: effect on crop by foliage application, plastic box (symbol b); details: 320 g/ha, 3 weeks after application
Method in brief: (§6)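 Soil: sterilized diluvial. Container: plastic box, 21 × 13 cm, 7 cm deep. Sowing: spot-like, ~1.5 cm cover. Growth: greenhouse, 25° C. to 30° C.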

beet [8] = assay: Test Example 5: effect on crop by foliage application, plastic box (symbol f); details: 320 g/ha, 3 weeks after application
Method in brief: as §6

[9] = application herbicide amount 320 g/ha

Compound	Herbicidal effect grade, A: Echinochloa oryzacola Vasing. [1]	Herbicidal effect grade, C: Monochoria vaginalis (Monochoria vaginalis [2])	Herbicidal effect grade, A: Echinochloa oryzacola Vasing. [3]	Herbicidal effect grade, B: Scirpus juncoides (Scirpus juncoides)	Herbicidal effect grade, C: Monochoria vaginalis (Monochoria vaginalis [4])	G: Setaria viridis, herbicidal effect grade (Setaria viridis)	M: Abutilon theophrasti, herbicidal effect grade (Abutilon theophrasti)	Q: Galium spurium, herbicidal effect grade (Galium spurium [5])	c: corn, effect grade on crop (corn)	e: wheat, effect grade on crop (wheat)	f: beet, effect grade on crop (beet [6])	J: Alopecurus myosuroides, herbicidal effect (criteria 0-5) (Alopecurus myosuroides)	K: Lolium multiflorum Lam., herbicidal effect (criteria 0-5) (Lolium multiflorum Lam.)	N: Amaranthus retroflexus, herbicidal effect (criteria 0-5) (Amaranthus retroflexus)	Q: Galium spurium, herbicidal effect (criteria 0-5) (Galium spurium [7])	b: directly sowed rice plant, effect on crop (criteria 0-5) (rice plant)	f: beet, effect on crop (criteria 0-5) (beet [8])	other results
CC(CC1CC(O)=C(c2c(C)cc(C)cc2C)C1=O)=NOCc1cccc(Cl)c1 (stereo not shown) [1-114]	5 (Herbicidal ratio of 90% or more (almost completely withered))	5 (Herbicidal ratio of 90% or more (almost completely withered))	4 (Herbicidal ratio of 70% or higher and lower than 90%)	3 (Herbicidal ratio of 40% or higher and lower than 70%)	4 (Herbicidal ratio of 70% or higher and lower than 90%)	5 (Herbicidal ratio of 90% or more (almost completely withered))	0 (Herbicidal ratio of 5% or lower (almost no effect))	0 (Herbicidal ratio of 5% or lower (almost no effect))	0 (Herbicidal ratio of 5% or lower (almost no effect))	0 (Herbicidal ratio of 5% or lower (almost no effect))	0 (Herbicidal ratio of 5% or lower (almost no effect))	4 (Herbicidal ratio of 70% or higher and lower than 90%)	5 (Herbicidal ratio of 90% or more (almost completely withered))	1 (Herbicidal ratio of 5% or higher and lower than 20%)	0 (Herbicidal ratio of 5% or lower (almost no effect))	5 (Herbicidal ratio of 90% or more (almost completely withered))	0 (Herbicidal ratio of 5% or lower (almost no effect))	
CON=C(C)CC1CC(OC(=O)c2nc(C)sc2C)=C(c2c(C)cc(C)cc2C)C1=O (stereo not shown) [1-101]	5 (Herbicidal ratio of 90% or more (almost completely withered))	2 (Herbicidal ratio of 20% or higher and lower than 40%)	5 (Herbicidal ratio of 90% or more (almost completely withered))	5 (Herbicidal ratio of 90% or more (almost completely withered))	2 (Herbicidal ratio of 20% or higher and lower than 40%)	5 (Herbicidal ratio of 90% or more (almost completely withered))	5 (Herbicidal ratio of 90% or more (almost completely withered))	0 (Herbicidal ratio of 5% or lower (almost no effect))	5 (Herbicidal ratio of 90% or more (almost completely withered))	3 (Herbicidal ratio of 40% or higher and lower than 70%)	3 (Herbicidal ratio of 40% or higher and lower than 70%)	5 (Herbicidal ratio of 90% or more (almost completely withered))	5 (Herbicidal ratio of 90% or more (almost completely withered))	5 (Herbicidal ratio of 90% or more (almost completely withered))	0 (Herbicidal ratio of 5% or lower (almost no effect))	5 (Herbicidal ratio of 90% or more (almost completely withered))	0 (Herbicidal ratio of 5% or lower (almost no effect))	
CC(CC1CC(O)=C(c2c(C)cc(C)cc2C)C1=O)=NOCC[S+](C)[O-] (stereo not shown) [1-125]	3 (Herbicidal ratio of 40% or higher and lower than 70%)	1 (Herbicidal ratio of 5% or higher and lower than 20%)	2 (Herbicidal ratio of 20% or higher and lower than 40%)	0 (Herbicidal ratio of 5% or lower (almost no effect))	0 (Herbicidal ratio of 5% or lower (almost no effect))	5 (Herbicidal ratio of 90% or more (almost completely withered))	0 (Herbicidal ratio of 5% or lower (almost no effect))	0 (Herbicidal ratio of 5% or lower (almost no effect))	2 (Herbicidal ratio of 20% or higher and lower than 40%)	3 (Herbicidal ratio of 40% or higher and lower than 70%)	0 (Herbicidal ratio of 5% or lower (almost no effect))	5 (Herbicidal ratio of 90% or more (almost completely withered))	5 (Herbicidal ratio of 90% or more (almost completely withered))	0 (Herbicidal ratio of 5% or lower (almost no effect))	3 (Herbicidal ratio of 40% or higher and lower than 70%)	5 (Herbicidal ratio of 90% or more (almost completely withered))	0 (Herbicidal ratio of 5% or lower (almost no effect))	
CC(CC1CC(O)=C(c2c(C)cc(C)cc2C)C1=O)=NOCc1ccc(C(F)(F)F)cc1 (stereo not shown) [1-138]	5 (Herbicidal ratio of 90% or more (almost completely withered))	5 (Herbicidal ratio of 90% or more (almost completely withered))	3 (Herbicidal ratio of 40% or higher and lower than 70%)	4 (Herbicidal ratio of 70% or higher and lower than 90%)	2 (Herbicidal ratio of 20% or higher and lower than 40%)	4 (Herbicidal ratio of 70% or higher and lower than 90%)	0 (Herbicidal ratio of 5% or lower (almost no effect))	0 (Herbicidal ratio of 5% or lower (almost no effect))	0 (Herbicidal ratio of 5% or lower (almost no effect))	0 (Herbicidal ratio of 5% or lower (almost no effect))	0 (Herbicidal ratio of 5% or lower (almost no effect))	5 (Herbicidal ratio of 90% or more (almost completely withered))	5 (Herbicidal ratio of 90% or more (almost completely withered))	0 (Herbicidal ratio of 5% or lower (almost no effect))	3 (Herbicidal ratio of 40% or higher and lower than 70%)	5 (Herbicidal ratio of 90% or more (almost completely withered))	0 (Herbicidal ratio of 5% or lower (almost no effect))	
CON=C(C)CC1CC(OC(C)=O)=C(c2c(C)cc(C)cc2C)C1=O (stereo not shown) [1-005]	5 (Herbicidal ratio of 90% or more (almost completely withered))	5 (Herbicidal ratio of 90% or more (almost completely withered))	5 (Herbicidal ratio of 90% or more (almost completely withered))	4 (Herbicidal ratio of 70% or higher and lower than 90%)	4 (Herbicidal ratio of 70% or higher and lower than 90%)													G (Setaria viridis) herbicidal effect grade (Setaria viridis; [9]): 3 (Herbicidal ratio of 40% or higher and lower than 70%); M (Abutilon theophrasti) herbicidal effect grade (Abutilon theophrasti; [9]): 5 (Herbicidal ratio of 90% or more (almost completely withered)); Q (Galium spurium) herbicidal effect grade (Galium spurium [5]; [9]): 0 (Herbicidal ratio of 5% or lower (almost no effect)); c (corn) effect on crop grade (corn; [9]): 4 (Herbicidal ratio of 70% or higher and lower than 90%); e (wheat) effect on crop grade (wheat; [9]): 4 (Herbicidal ratio of 70% or higher and lower than 90%); f (beet) effect on crop grade (beet [6]; [9]): 4 (Herbicidal ratio of 70% or higher and lower than 90%); J: Alopecurus myosuroides, herbicidal effect grade (Alopecurus myosuroides): 5 (Herbicidal ratio of 90% or more (almost completely withered)); K: Lolium multiflorum Lam., herbicidal effect grade (Lolium multiflorum Lam.): 5 (Herbicidal ratio of 90% or more (almost completely withered)); N: Amaranthus retroflexus, herbicidal effect grade (Amaranthus retroflexus): 4 (Herbicidal ratio of 70% or higher and lower than 90%); Q: Galium spurium, herbicidal effect grade (Galium spurium [7]): 4 (Herbicidal ratio of 70% or higher and lower than 90%); b: directly sowed rice plant, effect on crop grade (rice plant): 5 (Herbicidal ratio of 90% or more (almost completely withered)); f: beet, effect on crop grade (beet [8]): 3 (Herbicidal ratio of 40% or higher and lower than 70%)
